Patent publication US20230183237A1, “COMPETITIVE AND NONCOMPETITIVE INHIBITORS OF THE MUSCARINIC ACETYLCHOLINE RECEPTOR M5” (Vanderbilt University, priority 2020, published 2023)
Like-named read-outs stand apart in the source and are kept apart here.

Target: T1, hM5 (Homo sapiens, UniProt P08912)
T1 construct: expressed in transfected cells
T1 sequence (P08912 1-532): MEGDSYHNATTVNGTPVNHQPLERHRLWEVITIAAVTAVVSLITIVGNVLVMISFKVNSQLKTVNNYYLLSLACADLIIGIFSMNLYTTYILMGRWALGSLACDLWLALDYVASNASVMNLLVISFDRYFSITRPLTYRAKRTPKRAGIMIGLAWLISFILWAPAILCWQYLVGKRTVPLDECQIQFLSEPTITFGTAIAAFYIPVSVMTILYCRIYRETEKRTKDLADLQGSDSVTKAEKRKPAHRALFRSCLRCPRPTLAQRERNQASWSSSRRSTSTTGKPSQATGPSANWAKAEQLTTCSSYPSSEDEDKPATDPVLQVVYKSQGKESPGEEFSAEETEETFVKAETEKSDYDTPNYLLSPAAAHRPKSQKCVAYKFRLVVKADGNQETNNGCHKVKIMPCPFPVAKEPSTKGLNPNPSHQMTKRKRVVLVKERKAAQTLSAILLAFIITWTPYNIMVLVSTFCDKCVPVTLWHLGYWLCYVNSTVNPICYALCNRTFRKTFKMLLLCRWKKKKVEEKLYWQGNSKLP
Test: Calcium mobilization concentration-response (IC50 vs EC80 acetylcholine), CHO hM5
Format: cell-based
Settings: CELL LINE hM5, read-out: IC50
Procedure, shortened: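 CHO cells stably expressing hM5, dye-loaded, in HBSS/20 mM HEPES/2.5 mM probenecid, pH 7.4. Compounds were pre-incubated 140 s before an EC80 acetylcholine challenge, with calcium flux read kinetically.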

[1] = calcium mobilization, EC80 acetylcholine addition

Row | SMILES | IC50 [1] [nM] | IC50 (vs EC80 acetylcholine) [nM]
1 | [2H]C1([2H])Oc2cc(C)c(C3CCN(S(=O)(=O)c4cnn(C)c4C)CC3)cc2OC1([2H])[2H] [Compound 389, 1-((1,5-dimethyl-1H-pyrazol-4-yl)sulfonyl)-4-(7-methyl-2,3-dihydrobenzo[b][1,4]dioxin-6-yl-2,2,3,3-d4)piperidine] | 182 | –
2 | Cc1nc2[nH]ccc2nc1C1CCN(S(=O)(=O)c2ccc3ncsc3c2)CC1 [Compound 16, 6-((4-(3-methyl-5H-pyrrolo[2,3-b]pyrazin-2-yl)piperidin-1-yl)sulfonyl)benzo[d]thiazole] | > 10000 | –
3 | Cc1cc2nncn2cc1C1CCN(S(=O)(=O)c2ccc3c(c2)CCO3)CC1 [Compound 50, 6-(1-((2,3-dihydrobenzofuran-5-yl)sulfonyl)piperidin-4-yl)-7-methyl-[1,2,4]triazolo[4,3-a]pyridine] | > 10000 | –
4 | Cc1cc2nccn2nc1C1CCN(S(=O)(=O)c2ccc3ncccc3c2)CC1 [Compound 39, 6-((4-(7-methylimidazo[1,2-b]pyridazin-6-yl)piperidin-1-yl)sulfonyl)quinoline] | > 10000 | –
5 | Cc1cc2ncnn2cc1C1CCN(S(=O)(=O)c2c(C)nn(C)c2C(F)(F)F)C(C)C1 (stereo not drawn) [Compound 362, 6-(1-((1,3-dimethyl-5-(trifluoromethyl)-1H-pyrazol-4-yl)sulfonyl)-2-methylpiperidin-4-yl)-7-methyl-[1,2,4]triazolo[1,5-a]pyridine] | > 10000 | –
6 | Cc1cc2nccn2cc1C1CCN(S(=O)(=O)c2ccc3c(c2)CCO3)CC1 [Compound 66, 6-(1-((2,3-dihydrobenzofuran-5-yl)sulfonyl)piperidin-4-yl)-7-methylimidazo[1,2-a]pyridine] | 1300 | –
7 | Cc1cc2ncccc2cc1C1CCN(S(=O)(=O)c2cnc3ccccn23)CC1 [Compound 452, 6-(1-(imidazo[1,2-a]pyridin-3-ylsulfonyl)piperidin-4-yl)-7-methylquinoline] | – | 445
8 | O=S(=O)(c1ccc2c(c1)CCO2)N1CCC(c2nc3cccnc3s2)CC1 [Compound 12, 2-(1-((2,3-dihydrobenzofuran-5-yl)sulfonyl)piperidin-4-yl)thiazolo[5,4-b]pyridine] | > 10000 | –
9 | [2H]C1([2H])CC(c2cn3ncnc3c(F)c2C)CC([2H])([2H])N1S(=O)(=O)c1cnn(C)c1C(F)F [Compound 474, 6-(1-((5-(Difluoromethyl)-1-methyl-1H-pyrazol-4-yl)sulfonyl)piperidin-4-yl-2,2,6,6-d4)-8-fluoro-7-methyl-[1,2,4]triazolo[1,5-a]pyridine] | – | 11
10 | Cc1sc(C#N)nc1C1CCN(S(=O)(=O)c2ccc3c(c2)CCO3)CC1 [Compound 226] | 1400 | –
11 | Cc1cc2ncnn2nc1C1CCN(S(=O)(=O)c2ccc3c(c2)OCCO3)CC1 [Compound 184, 6-(1-((2,3-dihydrobenzo[b][1,4]dioxin-6-yl)sulfonyl)piperidin-4-yl)-7-methyl-[1,2,4]triazolo[1,5-b]pyridazine] | > 10000 | –
12 | CN1CCOc2ccc(S(=O)(=O)N3CC=C(c4cc5c(cc4Cl)OCO5)CC3)cc21 [Compound 353, 6-((4-(6-chlorobenzo[d][1,3]dioxol-5-yl)-3,6-dihydropyridin-1(2H)-yl)sulfonyl)-4-methyl-3,4-dihydro-2H-benzo[b][1,4]oxazine] | > 10000 | –
13 | Cc1ccc(S(=O)(=O)N2CCC(c3cn4ccnc4cc3C)CC2)cn1 [Compound 69, 7-methyl-6-(1-((6-methylpyridin-3-yl)sulfonyl)piperidin-4-yl)imidazo[1,2-a]pyridine] | > 10000 | –
14 | Cc1cc2nccn2nc1N1CCN(S(=O)(=O)c2cnn(C)c2C)CC1 [Compound 434, 6-[4-(1,5-Dimethylpyrazol-4-yl)sulfonylpiperazin-1-yl]-7-methyl-imidazo[1,2-b]pyridazine] | – | 43
15 | Cc1c(S(=O)(=O)N2CC=C(c3cn4ncnc4c(F)c3F)CC2)cnn1C [Compound 379, 6-(1-((1,5-dimethyl-1H-pyrazol-4-yl)sulfonyl)-1,2,3,6-tetrahydropyridin-4-yl)-7,8-difluoro-[1,2,4]triazolo[1,5-a]pyridine] | 243 | –

The remaining lines, values ahead:

Row | IC50 [1] [nM] | IC50 (vs EC80 acetylcholine) [nM] | SMILES
16 | 2100 | – | Cc1cc2ncnn2cc1C1CCN(S(=O)(=O)c2cn(C)nc2C(F)(F)F)CC1 [Compound 101, 7-methyl-6-(1-((1-methyl-3-(trifluoromethyl)-1H-pyrazol-4-yl)sulfonyl)piperidin-4-yl)-[1,2,4]triazolo[1,5-a]pyridine]
17 | 16 | – | Cc1cc2ncnn2cc1C1CCN(S(=O)(=O)c2cnc3ccccn23)CC1 [Compound 323, 6-(1-(imidazo[1,2-a]pyridin-3-ylsulfonyl)piperidin-4-yl)-7-methyl-[1,2,4]triazolo[1,5-a]pyridine]
18 | 12 | – | O=S(=O)(c1cnn2c1CCC2)N1CCC(c2cn3ncnc3cc2Cl)CC1 [Compound 293, 7-chloro-6-(1-((5,6-dihydro-4H-pyrrolo[1,2-b]pyrazol-3-yl)sulfonyl)piperidin-4-yl)-[1,2,4]triazolo[1,5-a]pyridine]
19 | – | 655 | [2H]C([2H])([2H])Oc1c(S(=O)(=O)N2CCC(c3cn4ncnc4cc3F)CC2)cnn1C [Compound 616, 7-fluoro-6-(1-((5-(methoxy-d3)-1-methyl-1H-pyrazol-4-yl)sulfonyl)piperidin-4-yl)-[1,2,4]triazolo[1,5-a]pyridine]
20 | 6 | – | Cc1cc2ncnn2cc1C1CCN(S(=O)(=O)c2cnn3c2CCCC3)CC1 [Compound 238, 7-methyl-6-(1-((4,5,6,7-tetrahydropyrazolo[1,5-a]pyridin-3-yl)sulfonyl)piperidin-4-yl)-[1,2,4]triazolo[1,5-a]pyridine]
21 | – | 343 | Cc1cc(S(=O)(=O)N2CCC(c3nn4ncnc4cc3C)CC2)sn1 [Compound 487, 3-methyl-5-((4-(7-methyl-[1,2,4]triazolo[1,5-b]pyridazin-6-yl)piperidin-1-yl)sulfonyl)isothiazole]
22 | – | 6 | O=S(=O)(c1cnc2sccn12)N1CCC(c2cn3ncnc3cc2Cl)CC1 [Compound 531, 5-((4-(7-chloro-[1,2,4]triazolo[1,5-a]pyridin-6-yl)piperidin-1-yl)sulfonyl)imidazo[2,1-b]thiazole]
23 | 441 | – | Cc1cc2ncnn2cc1C1CCN(S(=O)(=O)c2cc3c(cc2F)OCC3)CC1 [Compound 47, 6-(1-((6-fluoro-2,3-dihydrobenzofuran-5-yl)sulfonyl)piperidin-4-yl)-7-methyl-[1,2,4]triazolo[1,5-a]pyridine]
24 | 65 | – | O=S(=O)(c1cnn2c1CCC2)N1CC=C(c2cc3ncnn3cc2Cl)CC1 [Compound 195, 6-chloro-7-(1-((5,6-dihydro-4H-pyrrolo[1,2-b]pyrazol-3-yl)sulfonyl)-1,2,3,6-tetrahydropyridin-4-yl)-[1,2,4]triazolo[1,5-a]pyridine]
25 | > 10000 | – | COc1cc2ncnn2cc1C1CCN(S(=O)(=O)c2ccc3ncsc3c2)CC1 [Compound 82, 6-((4-(7-methoxy-[1,2,4]triazolo[1,5-a]pyridin-6-yl)piperidin-1-yl)sulfonyl)benzo[d]thiazole]
26 | > 10000 | – | Cc1nn(C)cc1S(=O)(=O)N1CCC(c2ccc3ncnn3c2)CC1 [Compound 63, 6-(1-((1,3-dimethyl-1H-pyrazol-4-yl)sulfonyl)piperidin-4-yl)-[1,2,4]triazolo[1,5-a]pyridine]
27 | – | 175 | Cc1cc2ncnn2cc1C1CCN(S(=O)(=O)c2cnn3cccnc23)CC1 [Compound 442, 7-methyl-6-(1-(pyrazolo[1,5-a]pyrimidin-3-ylsulfonyl)piperidin-4-yl)-[1,2,4]triazolo[1,5-a]pyridine]
